Experimental data: US12435032B2, “L-γ-methyleneglutamine compounds and methods of use” (University of Mississippi, priority 2019, dated 2025)
“Also recorded” adds a separate entry of the source. Like-named read-outs stand apart in the source and are kept apart here.

Tests used:
[1] = system: SK-BR-3 breast cancer cells; assay: Cytotoxicity (cell death, propidium iodide) in SK-BR-3 cells; format: cell-based; details: for EC50: Homo sapiens, dose-response 0.32-320 μM
[2] = system: MCF-7 breast cancer cells; assay: Cytotoxicity (cell death, propidium iodide) in MCF-7 cells; format: cell-based; details: for EC50: Homo sapiens, MCF7
[3] = system: MCF-10A non-cancerous breast cells; assay: Growth inhibition of MCF-10A cells (negative control line); format: cell-based; details: Homo sapiens, dose-response 0.32-320 μM
Protocol: (§1) Olaparib was chosen because it is one of a few FDA-approved chemotherapeutics for triple-negative breast cancer.
(§2) Cells were incubated for 15 minutes at 37° C.

[4] = system: SK-BR-3 (ER−/PR−/HER2+) breast cancer cells; assay: Growth inhibition of SK-BR-3 cells; format: cell-based; details: Homo sapiens, dose-response 0.32-320 μM
Protocol: as §1, §2

[5] = system: MCF-7 (ER+/PR+/HER2−) breast cancer cells; assay: Growth inhibition of MCF-7 cells (Hoechst 33342 fluorescence vs non-treated wells); format: cell-based; details: dose-response 0.32-320 μM
Protocol: as §1, §2

[6] = system: triple-negative MDA-MB-231 breast cancer cells; assay: Growth inhibition of MDA-MB-231 cells; format: cell-based; details: for IC50: Homo sapiens; for IC50 / Growth Inhibition IC50: dose-response 0.32-320 μM; for growth inhibition potency compared with olaparib: MDA-MB-231, throughout testing (24 h and 72 h)
Protocol: as §1, §2

[7] = system: triple-negative MDA-MB-231 breast cancer cells; assay: cells; details: Homo sapiens
[8] = Cytotoxicity (cell death, propidium iodide) in MCF-10A cells; format: cell-based; details: human, MCF-10A non-cancerous breast cells
Protocol: (§3) To assess the selectivity of cytotoxicity for cancer cells, all drugs and compounds were screened against MCF-10A, non-cancerous breast cells.
as §2

[9] = system: newborn rat spinal cord; details: cited from earlier work
[10] = system: central nervous system (CNS); details: cited from earlier work
[11] = system: MCF-10A non-cancerous breast cells; assay: Cytotoxicity (cell death, propidium iodide) in MCF-10A cells; format: cell-based
Protocol: as §3, §2

[12] = MCF-7, 24 h exposure, dose-response 0.32-320 μM, read-out: Cytotoxicity EC50
[13] = MCF-7, 72 h exposure, dose-response 0.32-320 μM, read-out: Cytotoxicity EC50
[14] = Homo sapiens, MCF7, 24 h, MCF-7, 24 h exposure
[15] = Homo sapiens, MCF7, 72 h, MCF-7, 72 h exposure
[16] = MDA-MB-231, 24 h, read-out: Cytotoxicity EC50
[17] = MDA-MB-231, 72 h, read-out: Cytotoxicity EC50
[18] = SK-BR-3, 72 h / after the first 24 h
[19] = MDA-MB-231, read-out: cytotoxic EC50

Compound	EC50 ([1]; SK-BR-3, 24 h exposure) [µM]	EC50 ([1]; SK-BR-3, 72 h exposure) [µM]	EC50 [2, 12] [µM]	EC50 [2, 13] [µM]	EC50 for MCF-7 cytotoxicity ([2]; MCF-7, 72 h exposure)	IC50 ([3]; 24 h exposure) [µM]	IC50 ([3]; 72 h exposure) [µM]	IC50 ([4]; SK-BR-3, 24 h exposure) [µM]	IC50 ([4]; SK-BR-3, 72 h exposure) [µM]	IC50 [5, 14] [µM]	IC50 [5, 15] [µM]	IC50 ([6]; MDA-MB-231, 24 h exposure) [µM]	IC50 ([6]; MDA-MB-231, 72 h exposure) [µM]	Growth Inhibition IC50 ([6]; MDA-MB-231, 24 h exposure)	Growth Inhibition IC50 ([6]; MDA-MB-231, 72 h exposure)	EC50 [7, 16] [µM]	EC50 [7, 17] [µM]	EC50 at 24 h ([8]; 24 h exposure) [µM]	EC50 at 24 h ([8]; head prints 24 h) [µM]	cytotoxicity EC50 [1, 18]	further results
C=C(C[C@H](N)C(=O)O)C(N)=O [Compound 1, (S)-2-amino-4-carbamoylpent-4-enoic acid]	0.2	2	152	3	significantly lower than tamoxifen	> 1000	> 1000	7.9	11.3	459	609	141	585	potency that was commensurate to tamoxifen	longer-term performance commensurate to olaparib; also recorded: as efficacious as olaparib	8.9	320	> 1000	> 1000	–	cytotoxicity EC50 ([1]; SK-BR-3, at 24 or 72 h): commensurate EC50's at 24 or 72 h
C=C(C[C@H](N)C(=O)O)C(=O)O [Compound 2, L-γ-methyleneglutamic acid]	–	–	–	–	–	–	–	–	–	–	–	–	–	–	–	–	–	–	–	–	potency relative to L-glutamate as a depolarizing agent [9]: 10 times; central nervous system (CNS) inhibitory activity [10]: strong
C=C(C[C@H](N)C(=O)O)C(=O)NCc1ccccc1 [Compound 4, (S)-2-amino-4-(benzylcarbamoyl) pent-4-enoic acid]	0.1	> 1000	664	218	–	> 1000	> 1000	74.2	0.6	> 1000	197	481	649	–	poorer potency than olaparib	374	980	> 1000	563	much reduced toxicity	cytotoxicity EC50 ([11]; after the first 24 h): EC50 in the micromolar range
C=C(C[C@H](N)C(=O)O)C(=O)NCc1ccc(F)cc1 [Compound 5, (S)-2-amino-4-((4-fluorobenzyl)carbamoyl)pent-4-enoic acid]	> 1000	0.4	> 1000	54.5	–	> 1000	> 1000	3.9	4.5	590	85.3	350	339	–	–	265	262	796	> 1000	cell death was apparent	cytotoxicity ([1]; SK-BR-3, 24 h exposure): devoid of toxicity; growth inhibition potency compared with olaparib [6]: equipotent to olaparib; cytotoxicity EC50 ([11]; within the first 24 h): EC50 below the millimolar range
C=C(C[C@H](N)C(=O)O)C(=O)NCc1ccc([N+](=O)[O-])cc1 [Compound 6, (S)-2-amino-4-((4-nitrobenzyl)carbamoyl) pent-4-enoic acid]	0.3	0.4	485	20.4	–	> 1000	> 1000	12.8	3.2	457	534	216	368	potency that was commensurate to tamoxifen	longer-term performance commensurate to olaparib; also recorded: as efficacious as olaparib	150	270	> 1000	> 1000	–	cytotoxicity EC50 ([1]; SK-BR-3, at 24 or 72 h): commensurate EC50's at 24 or 72 h
C=C(C[C@H](N)C(=O)O)C(=O)NC1CC1 [Compound 7, (S)-2-amino-4-(cyclopropylcarbamoyl) pent-4-enoic acid]	272	> 1000	64.1	508	–	> 1000	> 1000	314	0.6	231	416	649	922	–	poorer potency than olaparib	933	> 1000	> 1000	> 1000	much reduced toxicity	EC50 ([2]; MCF-7, 24 h exposure, read-out: EC50 for cytotoxicity): 64 µM; Growth Inhibition IC50 ([5]; MCF-7, 72 h exposure): significantly less potent than tamoxifen
C=C(C[C@H](N)C(=O)O)C(=O)N1CCCCC1 [Compound 8, (S)-2-amino-4-(piperidine-1-carbonyl) pent-4-enoic acid]	0.1	> 1000	197	198	did not change	> 1000	> 1000	133	0.6	434	606	685	813	poorer potency than both tamoxifen or olaparib	poorer potency than olaparib	> 1000	> 1000	> 1000	> 1000	much reduced toxicity	Growth Inhibition IC50 ([5]; MCF-7, 72 h exposure): significantly less potent than tamoxifen
C=C(C[C@H](N)C(=O)O)C(=O)Nc1ccc(F)cc1 [Compound 9, (S)-2-amino-4-((4-fluorophenyl)carbamoyl) pent-4-enoic acid]	0.2	0.1	161	2.3	significantly lower than tamoxifen	> 1000	> 1000	11.4	4.7	414	76	652	419	–	–	> 1000	450	> 1000	> 1000	–	cytotoxicity EC50 ([1]; SK-BR-3, at 24 or 72 h): commensurate EC50's at 24 or 72 h; growth inhibition potency compared with olaparib [6]: equipotent to olaparib
C=C(C[C@H](N)C(=O)O)C(=O)Nc1ccc(Cl)cc1 [Compound 10, (S)-2-amino-4-((4-chlorophenyl)carbamoyl) pent-4-enoic acid]	262	> 1000	205	93.2	–	> 1000	> 1000	78.7	4	397	171	867	712	poorer potency than both tamoxifen or olaparib	poorer potency than olaparib	> 1000	> 1000	> 1000	> 1000	much reduced toxicity	–
O=C(c1cc(Cc2n[nH]c(=O)c3ccccc23)ccc1F)N1CCN(C(=O)C2CC2)CC1 [Olaparib, reference compound]	> 1000	0.1	> 1000	26.5	micromolar EC50	> 1000	> 1000	1.6	1.1	> 1000	–	161	154	–	–	61.2	97.1	511	> 1000	–	cytotoxicity ([1]; SK-BR-3, 24 h exposure): neither tamoxifen nor olaparib were cytotoxic; EC50 for cytotoxicity ([2]; MCF-7, 24 h exposure): neither tamoxifen nor olaparib were cytotoxic; IC50 ([5]; MCF-7, 72 h exposure): 108 µM; EC50 [7, 19]: ≤ 100 µM; EC50 at 24 h ([8]; within the first 24 h): 268 to 511 µM
CC/C(=C(\c1ccccc1)c1ccc(OCCN(C)C)cc1)c1ccccc1 [Tamoxifen, reference compound]	> 1000	0.3	> 1000	–	micromolar EC50	–	–	–	–	–	–	–	–	–	–	26	30.9	268	> 1000	–	cytotoxicity ([1]; SK-BR-3, 24 h exposure): neither tamoxifen nor olaparib were cytotoxic; EC50 for cytotoxicity ([2]; MCF-7, 24 h exposure): neither tamoxifen nor olaparib were cytotoxic; EC50 [7, 19]: ≤ 100 µM; EC50 at 24 h ([8]; within the first 24 h): 268 to 511 µM
